According to patent publication US12194033B2, “Glycine receptor modulators and methods of use” (University of Pittsburgh—Of the Commonwealth System of …, priority 2017, dated 2025):

Assays:
CD1 mice = assay: Hargreaves test under CFA-induced hyperalgesic conditions in CD1 mice; assay type: in vivo; details: for response time for paw withdrawal compared to vehicle: 0.1 mg/kg, CD1 mice, CFA-induced hyperalgesic conditions
Procedure: Under CFA-induced hyperalgesic conditions, the maximum possible effect, % MPE=(response−baseline)/(cut-off time−baseline), was measured for the application of compound 1 alone (0.05 mg/kg, blue, n=12; 0.01 mg/kg, orange, n=4), morphine alone (0.1 mg/kg, green, n=8), and compound 1 with morphine at three different dosage combinations: 0.05 mg/kg compound 1 with 0.1 mg/kg morphine (light blue, n=6), 0.01 mg/kg compound 1 with 0.1 mg/kg morphine (pink, n=10), and 0.01 mg/kg compound 1 with 0.01 mg/kg morphine (red, n=4). […] Error bars designate the standard error of the mean.
0.05 mg/kg compound 1 was tested for tolerance in CFA-treated mice (red). Under CFA-induced hyperalgesic conditions (24 hours post-application of CFA), 0.05 mg/kg compound 1 was administered to CD1 mice and responses to the Hargreaves test were measured immediately after the initial injection (application time=0) and again after a repeated dose given 1.5 hours (FIG. 7A) or 24 hours (FIG. 7B) after the effects of the first dose wore off. The black circles represent the responses of naïve mice (i.e., no administration of compound 1 or CFA), and the red circles represent the responses of mice receiving compound 1 under CFA-induced hyperalgesic conditions. […] Error bars designate the standard error of the mean (n=4).
Responses of CD1 mice to the Hargreaves test were assessed after application of 0.1 mg/kg of the indicated compounds (black) or vehicle (white) under CFA-induced hyperalgesic conditions as shown in FIGS. 8A-8H. The assessed compounds were compounds 1 (8A), 2 (8B), 3 (8C), 4 (8D), 5 (8E), 6 (8F), 7 (8G), and 8 (8H). […] Error bars designate the standard error of the mean (n≥4).
Dose response curves from the Hargreaves test in mice with a CFA-inflamed left hind paw at 1.5 and 2 hr after intraperitoneal injection of compound 1. Percent Maximum Possible Effect (% MPE) was calculated from paw withdrawal latencies.
Tolerance to compound 1 (MJPY1) and compound 3 (MJPY2) was measured by repeated dosing in the Hargreaves Test. […] Mice (n=6/group) received repeated i.p. injections of vehicle or 0.1 mg/kg compound 1 (MJPY1) or compound 3 (MJPY2) once a day for 5 days. CFA inflammation was induced on day 4, and PWL was measured 0.5 hr before and every 10 min after treatment on day 5. Data were binned to 30-min blocks (mean±SEM).

mice = assay: Two-plate thermal preference test (30° C. vs 55° C.); assay type: in vivo; details: for percentage of inactive time on the hot plate (55° C.): CD1 mice, CFA, vs naïve
Procedure: Responses to the two-plate thermal preference test were assessed under naïve conditions and 1 hour after administration of 0.2 mg/kg compound 1, 0.1 mg/kg morphine, or 0.2 mg/kg compound 1+0.1 mg/kg morphine. Unrestrained mice were exposed to plates set to normal and hot temperatures (30° C. and 55° C., respectively). Temperature preference was measured by percentage time spent on the hot plate (55° C.) over the course of 4 minutes, where 50% indicates no preference between the two temperatures. […] Error bars designate the standard error of the mean (n≥5).
Unrestrained mice were exposed to plates set to normal and hot temperatures (30° C. and 55° C., respectively) for 10 minutes. […] Error bars designate the standard error of the mean (n=4).
The percent inactivity on the 55° C. plate (mean±SEM) is a measure of heat tolerance. Significance was assessed by one-way ANOVA with LSD post-hoc test.

[1] = 0.1 mg/kg i.p., 1 hour after injection
[2] = 0.1 mg/kg i.p., 48 hours after injection

| Structure (SMILES) | response time for paw withdrawal compared to vehicle (CD1 mice) | other results |
| --- | --- | --- |
| O=C(NCc1ccc(C(=O)N2CCCCC2)cc1)c1ccc2c3c(cccc13)CC2 [compound 2, N-{[4-(piperidine-1-carbonyl)phenyl]methyl}-1,2-dihydroacenaphthylene-5-carboxamide] | increase in the response time |  |
| NC(=O)CNC(=O)c1ccc(CNC(=O)c2ccc3c4c(cccc24)CC3)cc1 [compound 3, N-({4-[(carbamoylmethyl)-carbamoyl]phenyl}methyl)-1,2-dihydroacenaphthylene-5-carboxamide] | increase in the response time | percentage of inactive time on the hot plate (55° C.) (mice; [1]): significantly increased; percentage of inactive time on the hot plate (55° C.) (mice; [2]): significantly increased; analgesic action compared with morphine (percent inactivity on the 55° C. plate) (mice; 0.1 mg/kg i.p., male CD1 mice, 24 hr after CFA, 1 hr after treatment, same dose): better than morphine; tolerance after repeated dosing (PWL) (CD1 mice; 0.1 mg/kg i.p. once a day for 5 days, CFA on day 4): negligible tolerance |
| CN(C)C(=O)c1cccc(CNC(=O)c2ccc3c4c(cccc24)CC3)c1 [compound 4, N-[[3-(dimethylcarbamoyl)-phenyl]methyl]-1,2-dihydroacenaphthylene-5-carboxamide] | increase in the response time | percentage of inactive time on the hot plate (55° C.) (mice; [1]): increase in the inactive time; percentage of inactive time on the hot plate (55° C.) (mice; [2]): no effect |
| NC(=O)c1ccc(CNC(=O)c2ccc3c4c(cccc24)CC3)cc1 [compound 5, N-[(4-carbamoylphenyl)-methyl]-1,2-dihydroacenaphthylene-5-carboxamide] | increase in the response time |  |
| O=C1CN(C(=O)c2ccc(CNC(=O)c3ccc4c5c(cccc35)CC4)cc2)CCN1 [compound 6, N-{[4-(3-oxopiperazine-1-carbonyl)phenyl]methyl}-1,2-dihydroacenaphthylene-5-carboxamide] | increase in the response time |  |
| CCN(Cc1ccc(C(=O)N(C)C)cc1)C(=O)c1ccc2c3c(cccc13)CC2 [compound 7, N-{[4-(dimethylcarbamoyl)-phenyl]methyl}-N-ethyl-1,2-dihydroacenaphthylene-5-carboxamide] | increase in the response time |  |
| CCNC(=O)c1ccc(CNC(=O)c2ccc3c4c(cccc24)CC3)cc1 [compound 8, N-{[4-(ethylcarbamoyl)-phenyl]methyl}-1,2-dihydroacenaphthylene-5-carboxamide] | increase in the response time |  |
| CN1CC[C@]23c4c5ccc(O)c4O[C@H]2[C@@H](O)C=C[C@H]3[C@H]1C5 [morphine, reference compound] |  | percentage time spent on the hot plate (55° C.) compared to naïve mice (mice; normal nociception, 1 hour after 0.2 mg/kg compound 1, 0.1 mg/kg morphine, or both, 4 minutes): no significant analgesic response |
